Measurements: US8258119B2, “Anti-cancer drugs and uses relating thereto for metastatic malignant melanoma and other cancers” (Kasina Laila Innova Pharmaceuticals, priority 2008, dated 2012)
≈ marks a conversion by molar mass, not a printed value.

What was measured:
[1] = system: A375 human melanoma cells; assay: MTT cell proliferation assay in A375 cells; format: cell-based; details: A-375, 72 h, 3 days, read-out: 50% of inhibitory concentration, IC50 in A375 cells
Protocol: MTT [3-(4,5-dimethylthiazol-2-yl)-2,5-diphenyltetrazolium bromide] incorporation based cell proliferation assay was performed using standard procedure with some modifications (38). The cytotoxic efficacy of the test compounds were evaluated in human malignant melanoma A2058 cells by MTT cell proliferation assay kit (Roche Applied Sciences, Germany). The assay was carried out according to the instruction provided by the vendor. Briefly, equal numbers of cells was plated in 96-well flat-bottomed plates in 100 μl of medium and were exposed to either DTIC or its derivative compounds at various concentrations up to 150 μg/ml for a period of three days. Vehicle control culture wells received only a maximum of 0.5% DMSO. […] After complete solubilization of the formazan crystals the absorbance was read at 540 nm in a microplate reader (BioRad, USA). […]
The comparative anti-tumor growth potential of DTIC and Compound 6 was further tested in B16F0 mouse melanoma cells and A375 human melanoma cells by using MTT based cell proliferation assay following the methodology described earlier (Example 19). […] After adding the MTT reagent, the cells were solubilized and the intracellular formazan formation was calorimetrically read at 540 nm in a microplate reader (BioRad, USA). […]

[2] = system: A2058, human malignant melanoma cells; assay: MTT cell proliferation assay in A2058 cells; format: cell-based; details: A2058, 72 h, three days exposure
Protocol: (§1) MTT [3-(4,5-dimethylthiazol-2-yl)-2,5-diphenyltetrazolium bromide] incorporation based cell proliferation assay was performed using standard procedure with some modifications (38). The cytotoxic efficacy of the test compounds were evaluated in human malignant melanoma A2058 cells by MTT cell proliferation assay kit (Roche Applied Sciences, Germany). The assay was carried out according to the instruction provided by the vendor. Briefly, equal numbers of cells was plated in 96-well flat-bottomed plates in 100 μl of medium and were exposed to either DTIC or its derivative compounds at various concentrations up to 150 μg/ml for a period of three days. Vehicle control culture wells received only a maximum of 0.5% DMSO. Thereafter, 0.5 mg/ml of MTT reagent was added to each well and the microplate was incubated further for 4 h at 37° C. in presence of 5% CO2. Finally, the cells were solubilized by adding solubilizing solution and allowed to incubate at 37° C. overnight. After complete solubilization of the formazan crystals the absorbance was read at 540 nm in a microplate reader (BioRad, USA). The results (mean OD±SD) obtained from quadruplicate wells were used in calculation to determine the inhibition of cell proliferation (50% inhibitory concentration, IC50) of the test compounds.

[3] = system: MCF-7 human breast tumor cells; assay: MTT cell proliferation assay in MCF-7 cells; format: cell-based; details: MCF7, read-out: 50% of inhibitory concentration, IC50 MCF-7
Protocol: as §1
Anti-tumor growth potential of Compound 1 and Compound 6 were evaluated in MCF-7 human breast tumor cells, MIA-PaCa2 human pancreas tumor cells and DU145 human prostate tumor cells by using MTT based cell proliferation studies as described earlier (example 19). The results (mean OD±SD) obtained from quadruplicate wells were used in calculation to determine the inhibition of cell proliferation (50% of inhibitory concentration, IC50) of the test compounds (Table 4).

[4] = system: Human umbilical vein endothelial cells (HUVEC); assay: In vitro capillary formation assay; format: cell-based; details: HUVEC on Cultrex, 16 hours
Protocol: In vitro capillary formation assay was performed with Human umbilical vein endothelial cells (HUVEC), cultured on 10 mg/ml basement membrane extract (BME-Cultrex®, R&D Systems, USA) bed. The protocol of in vitro endothelial tube formation assay was the same as described earlier with some modifications (44). Briefly, four hundred microliters of Cultrex was coated at 4° C. in each well of 24-well culture plate and allowed to gel at 37° C. for 1 h. HUVECs were plated at a density of 7.5×10^4 cells per well with […] of DMEM supplemented with 10% fetal bovine serum and 4.5 g/l D-glucose. The cells were then treated with either DTIC or Compound 6 at desired concentration as indicated for 16 hours. Vehicle control cultures received only 0.1% DMSO. Pictures were taken under a Nikon Eclipse TS 100 microscope equipped with a Nikon Coolpix camera.

[5] = cited from earlier work
[6] = system: metastatic malignant melanoma; details: clinical setting; cited from earlier work
[7] = system: normal human skin epithelial HS.531.sk cells; assay: LDH leakage assay on normal skin cells (tumor selectivity); format: cell-based
Protocol: From the data obtained from the MTT assay (Table J), compound 1, compound 6 and compound 13 have been selected and their cytotoxicity potential has been further validated in LDH leakage assay. […] Cytotoxicity potential of DTIC and its derivative compounds were evaluated by measuring the leaked lactate dehydrogenase (LDH) into the culture supernatant (LDH Cytotoxicity Detection Roche Applied Sciences, Germany). The leaked LDH is directly proportional to the cell damage done by the cytotoxic compounds. In brief, cells were treated with test compounds at various concentrations and incubated for 48 h. Vehicle control culture wells received only a maximum of 0.5% DMSO. The cell free culture supernatants were mixed with catalyst and dye solution and allowed to incubate for 15 min at room temperature. Finally, the reaction was stopped and the optical density was measured at 492 nm in a microplate reader (BioRad, USA). The results (mean OD±SD) obtained from quadruplicate wells were used in calculation to determine the cytotoxicity potential (50% of inhibitory concentration, IC50) of the test compounds. A plot of loss of cell viability as indicated by the leakage of LDH versus drug concentration is depicted in FIG. 1.
Next, to check whether the DTIC derivative compounds can selectively kill the melanoma cells without or minimally affecting the normal cells, we assessed the effect of the test compounds on normal human skin epithelial HS.531.sk cells. […] Whereas, 120 μg/ml of DTIC, compound 1, […] caused 5.8%, 4.2%, 2.4%, and 2.4% reduction in normal cell viability, respectively.

[8] = patient with renal and hepatic dysfunctions

Row | SMILES | IC50 [1] [µg/mL] | IC50 [2] [µg/mL] | IC50 [3] [µg/mL] | melting point [°C] | capillary formation [4] | average cumulative excretion of unchanged DTIC in the urine ([5]; in six hours) | initial half life [5, 8] [min] | terminal half life [5, 8] [min] | initial half life of disappearance from the plasma ([5]; plasma, biphasic) [min] | terminal half life of disappearance from the plasma ([5]; plasma, biphasic) | Complete Response (CR) rate [6] | reduction in normal cell viability ([7]; 120 μg/ml) [%] | effect on normal skin cell growth ([7]; up to 100 μg/ml)
1 | CN(C)/N=N/c1ccsc1C(=O)O [Compound 6, 3-[(dimethylamino)diazenyl]thiophene-2-carboxylic acid] | 46.5 (≈ 233 µM) | 53.6 (≈ 269 µM) | 91.7 (≈ 460 µM) | 108 to 110 | inhibition of capillary formation in a dose dependent manner | – | – | – | – | – | – | – | –
2 | CN(C)/N=N/c1[nH]cnc1C(N)=O [DTIC, 5-(3,3-dimethyl-1-trizeno)-imidazole-4-carboxamide, reference compound] | – | 68.1 (≈ 374 µM) | 135 (≈ 742 µM) | – | promoted capillary formation | 40 % of the injected dose | 55 | 432 | 19 | five | below 10% | 5.8 | do not affect the normal cell skin cell growth
